Starred links: 1 amine or outer side, 2 acyl side, 3 side chain; linkers in the order of their positions; H or OH if unused. Non-standard residues stand in square brackets, D forms with d. Residues, ends and D or L forms follow the SMILES beside them. ξ: configuration not given here. *: point of attachment. ξNMeBip(2'-Et,4'-OMe) = CCc1cc(OC)ccc1-c1ccc(CC(NC)C(=O)O)cc1; Leu(5,5,5,5',5',5'-F6) = N[C@@H](CC(C(F)(F)F)C(F)(F)F)C(=O)O; X4 = CCc1cc(OC)ccc1-c1ccc(CC(CNC(CCCc2ccccc2F)C(N)=O)N*)cc1; ξBip(2'-Et-4'-OMe) = CCc1cc(OC)ccc1-c1ccc(CC(N)C(=O)O)cc1; ξNva(5-(3,5-Me2-Ph)) = Cc1cc(C)cc(CCCC(N)C(=O)O)c1; ξNMeNva(5-(2-F-Ph)) = CNC(CCCc1ccccc1F)C(=O)O; ξNva(5-(3-Cl-Ph)) = NC(CCCc1cccc(Cl)c1)C(=O)O; ξαMePhe(2-F) = CC(N)(Cc1ccccc1F)C(=O)O; X2 = O=C(C(CCCc1ccccc1Cl)N[*:1])[*:2]; NMeD = CN[C@@H](CC(=O)O)C(=O)O; aThr = C[C@H](O)[C@H](N)C(=O)O; Ac3c = NC1(C(=O)O)CC1; Aib = CC(C)(N)C(=O)O

Holding throughout (format): in vitro ADME
The target of series [1] is DPP IV (Homo sapiens, UniProt P27487). The series can be described thus: Stability against DPP IV enzyme. The settings on record: 37° C.; for % degradation of peptidomimetics in 24 h when incubated with DPP-IV enzyme: 2 μM peptidomimetic; for half-life at 2 μM: DPP IV enzyme, pH 7.8, 2 μM peptidomimetic, read-out: half-life (t1/2) when incubated with DPP-IV enzyme. The method, then:
(§1) Reactions were terminated by the addition of TFA/H2O (15 mL, 10% (v/v)). […] The column was equilibrated with TFA/H20, at a flow rate of 1 mL/min.

A short description of series [2]: Stability in human plasma. The settings on record: 2 μM peptidomimetic, pooled human plasma, 37° C.; for half-life at 2 μM: pH 7.8, read-out: half-life (t1/2) when incubated with human plasma. The method, then:
as §1

Series [3] can be described thus: Stability in simulated gastric fluid. The settings on record: 2 μM peptidomimetic, simulated gastric fluid pH 1.5, 37° C.; for half-life at 2 μM: read-out: half-life (t1/2) when incubated with simulated gastric fluid. The method, then:
as §1

A short description of series [4]: Stability in simulated intestinal fluid. The settings on record: 2 μM peptidomimetic, simulated intestinal fluid pH 7.5, 37° C.; for half-life at 2 μM: read-out: half-life (t1/2) when incubated with simulated intestinal fluid. As to the method: as §1
Series [5] in a line: Stability in liver microsomes. The settings on record: 2 μM peptidomimetic, human liver microsomes, 37° C.; for half-life at 2 μM: pH 7.8, read-out: half-life (t1/2) when incubated with liver microsomes. The method, then:
as §1
(In general: Liver microsomes are vesicles of endoplasmic reticulum, rich in cytochrome P450 enzymes.)

DPP IV, sequence (P27487 whole entry, species assumed): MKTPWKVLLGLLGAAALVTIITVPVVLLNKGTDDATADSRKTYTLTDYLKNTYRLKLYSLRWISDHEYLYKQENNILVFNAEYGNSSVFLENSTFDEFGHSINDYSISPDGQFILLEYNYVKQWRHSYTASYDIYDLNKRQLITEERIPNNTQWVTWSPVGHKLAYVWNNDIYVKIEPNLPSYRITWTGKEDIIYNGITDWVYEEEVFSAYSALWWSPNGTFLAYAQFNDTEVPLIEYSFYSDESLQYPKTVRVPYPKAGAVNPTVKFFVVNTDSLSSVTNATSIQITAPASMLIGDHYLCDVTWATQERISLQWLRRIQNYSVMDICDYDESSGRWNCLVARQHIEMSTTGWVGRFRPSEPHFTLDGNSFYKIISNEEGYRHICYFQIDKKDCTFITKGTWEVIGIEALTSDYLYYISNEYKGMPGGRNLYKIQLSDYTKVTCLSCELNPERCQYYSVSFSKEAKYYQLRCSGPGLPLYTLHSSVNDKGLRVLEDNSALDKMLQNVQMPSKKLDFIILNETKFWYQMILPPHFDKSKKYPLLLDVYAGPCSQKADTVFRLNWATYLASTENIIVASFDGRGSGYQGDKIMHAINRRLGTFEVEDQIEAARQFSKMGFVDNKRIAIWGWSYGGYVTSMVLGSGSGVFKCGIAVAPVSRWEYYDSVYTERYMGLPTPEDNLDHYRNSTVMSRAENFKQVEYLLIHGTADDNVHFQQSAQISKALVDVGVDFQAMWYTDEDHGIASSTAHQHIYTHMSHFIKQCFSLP

For `CCc1cc(OC)ccc1-c1ccc(CC(NC(=O)[C@H](CC(=O)O)NC(=O)[C@H](CO)NC(=O)[C@@H](NC(=O)C(C)(Cc2ccccc2F)NC(=O)[C@@H](NC(=O)CNC(=O)[C@H](CC(C(F)(F)F)C(F)(F)F)NC(=O)C(C)(C)NC(=O)[C@@H](N)Cc2c[nH]cn2)[C@@H](C)O)[C@@H](C)O)C(=O)NC(CCCc2cccc(Cl)c2)C(N)=O)cc1` (some centres unmarked) [compound 236] (H-H[Aib][Leu(5,5,5,5',5',5'-F6)]GT[ξαMePhe(2-F)]TSD[ξBip(2'-Et-4'-OMe)][ξNva(5-(3-Cl-Ph))]-NH2), in series [1], the “% degradation of peptidomimetics in 24 h when incubated with DPP-IV enzyme” value (from here on “% degradation … with DPP-IV enzyme”) came out at 00% and the half-life at 2 μM is greater than 24 h. In addition, in series [2], the “% degradation of peptidomimetics in 24 h when incubated with human plasma” value (from here on “% degradation … with human plasma”) is recorded as 00% and the half-life at 2 μM is greater than 24 h. Besides, in series [3], the “% degradation of peptidomimetics in 24 h when incubated with simulated gastric fluid” value (“% degradation … with simulated gastric fluid” for short) was 00% and the half-life at 2 μM is greater than 24 h. For the same compound, in series [4], the “% degradation of peptidomimetics in 24 h when incubated with simulated intestinal fluid” value (“% degradation … with simulated intestinal fluid” below) is reported as 00% and the half-life at 2 μM is greater than 24 h. Besides, in series [5], the “half-life (t1/2) when incubated with liver microsomes” value is recorded as “(5) h” and the “% degradation of peptidomimetics in 24 h when incubated with liver microsomes” value (from here on “% degradation … with liver microsomes”) came out at 35%.

As for `CCc1cc(OC)ccc1-c1ccc(CC(NC(=O)[C@H](CC(=O)O)NC(=O)[C@H](CO)NC(=O)[C@@H](NC(=O)[C@H](Cc2ccccc2)NC(=O)[C@@H](NC(=O)CNC(=O)[C@H](CCC(N)=O)NC(=O)C2(C)CCCN2C(=O)[C@@H](N)Cc2c[nH]cn2)[C@@H](C)O)[C@@H](C)O)C(=O)NC(CCCc2ccc(Cl)cc2C)C(N)=O)cc1` (single isomer, unassigned) [compound 12], in series [1], the “% degradation … with DPP-IV enzyme” value amounted to 76% and the half-life at 2 μM came out at 9 h. In series [2], the “% degradation … with human plasma” value is on record as 78% and the half-life at 2 μM worked out at 8 h. For the same compound, in series [3], the “half-life (t1/2) when incubated with simulated gastric fluid” value was “(8) h” and the “% degradation … with simulated gastric fluid” value was 14%. In series [4], the “half-life (t1/2) when incubated with simulated intestinal fluid” value (“half-life … with simulated intestinal fluid” for short) is on record as “(6) h” and the “% degradation … with simulated intestinal fluid” value is on record as 43%. Besides, in series [5], the “% degradation … with liver microsomes” value worked out at 80% and the half-life at 2 μM came out at 1 h.

Consider `CCc1cc(OC)ccc1-c1ccc(CC(NC(=O)[C@H](CC(=O)O)NC(=O)[C@H](CO)NC(=O)[C@@H](NC(=O)[C@H](Cc2ccccc2)NC(=O)[C@@H](NC(=O)CNC(=O)[C@H](CCC(N)=O)NC(=O)C2(NC(=O)[C@@H](N)Cc3c[nH]cn3)CC2)[C@@H](C)O)[C@@H](C)O)C(=O)NC(CCCc2ccccc2Cl)C(N)=O)cc1` (some centres unmarked) [compound 74] (H-H[Ac3c]QGTFTSD[ξBip(2'-Et-4'-OMe)][X2]-NH2), for which, in series [1], the “% degradation … with DPP-IV enzyme” value is 76%. Also, in series [2], the “half-life (t1/2) when incubated with human plasma” value (“half-life … with human plasma” below) is given as “(9) h” and the “% degradation … with human plasma” value was found to be 78%. For the same compound, in series [3], the “% degradation … with simulated gastric fluid” value was 100% and the half-life at 2 μM is 0.5 h. Further, in series [4], the “% degradation … with simulated intestinal fluid” value is 100% and the half-life at 2 μM was 0.5 h. For the same compound, in series [5], the “% degradation … with liver microsomes” value was determined as 100% and the half-life at 2 μM stood at 0.5 h.

As to `CCc1cc(OC)ccc1-c1ccc(CC(NC(=O)[C@H](CC(=O)O)NC(=O)[C@H](CO)NC(=O)[C@@H](NC(=O)C(C)(Cc2ccccc2F)NC(=O)[C@@H](NC(=O)CNC(=O)[C@H](CC(C(F)(F)F)C(F)(F)F)NC(=O)C(C)(C)NC(=O)[C@@H](N)Cc2c[nH]cn2)[C@H](C)O)[C@@H](C)O)C(=O)NC(CCCc2ccccc2)C(N)=O)cc1` (some centres unmarked) [compound 226], the “% degradation … with DPP-IV enzyme” value in series [1] worked out at 74%. Further, in series [2], the “half-life … with human plasma” value was “(9) h” and the “% degradation … with human plasma” value was 75%. For the same compound, in series [3], the “% degradation … with simulated gastric fluid” value is 100% and the half-life at 2 μM is 0.5 h. In series [4], the “% degradation … with simulated intestinal fluid” value is on record as 100% and the half-life at 2 μM is 0.5 h. Moreover, in series [5], the “% degradation … with liver microsomes” value amounted to 100% and the half-life at 2 μM worked out at 0.5 h.

Take `CCc1cc(OC)ccc1-c1ccc(CC(NC(=O)[C@H](CC(=O)O)NC(=O)[C@H](CO)NC(=O)[C@@H](NC(=O)[C@H](Cc2ccccc2)NC(=O)[C@@H](NC(=O)CNC(=O)[C@H](CCC(N)=O)NC(=O)[C@H](C)NC(=O)[C@@H](N)Cc2c[nH]cn2)[C@@H](C)O)[C@@H](C)O)C(=O)NC(CCCc2cc(C)cc(C)c2)C(N)=O)cc1` (some centres unmarked) [compound 14] (H-HAQGTFTSD[ξBip(2'-Et-4'-OMe)][ξNva(5-(3,5-Me2-Ph))]-NH2): in series [1], the “% degradation … with DPP-IV enzyme” value was found to be 74% and the half-life at 2 μM stood at 9 h. In series [2], the “% degradation … with human plasma” value came out at 75% and the half-life at 2 μM worked out at 8 h. Also, in series [3], the “half-life (t1/2) when incubated with simulated gastric fluid” value is reported as “(8) h” and the “% degradation … with simulated gastric fluid” value is 12%. Besides, in series [4], the “half-life … with simulated intestinal fluid” value is given as “(6) h” and the “% degradation … with simulated intestinal fluid” value is 46%. Besides, in series [5], the “% degradation … with liver microsomes” value is listed as 83% and the half-life at 2 μM amounted to 1 h.

Turning to `CCc1cc(OC)ccc1-c1ccc(CC(C(=O)N(C)C(CCCc2ccccc2F)C(N)=O)N(C)C(=O)[C@H](CC(=O)O)N(C)C(=O)[C@H](CO)NC(=O)[C@@H](NC(=O)C(C)(Cc2ccccc2F)NC(=O)[C@@H](NC(=O)CNC(=O)[C@H](CC(C(F)(F)F)C(F)(F)F)NC(=O)C(C)(C)NC(=O)[C@@H](N)Cc2c[nH]cn2)[C@H](C)O)[C@H](C)O)cc1` (some centres unmarked) [compound 221] (H-H[Aib][Leu(5,5,5,5',5',5'-F6)]G[aThr][ξαMePhe(2-F)][aThr]S[NMeD][ξNMeBip(2'-Et,4'-OMe)][ξNMeNva(5-(2-F-Ph))]-NH2), in series [1], the “% degradation … with DPP-IV enzyme” value turned out to be 00% and the half-life at 2 μM was greater than 24 h. Also, in series [2], the “% degradation … with human plasma” value turned out to be 00% and the half-life at 2 μM was greater than 24 h. Moreover, in series [3], the “% degradation … with simulated gastric fluid” value is given as 00% and the half-life at 2 μM is greater than 24 h. In series [4], the “% degradation … with simulated intestinal fluid” value was 00% and the half-life at 2 μM was greater than 24 h. Moreover, in series [5], the “half-life (t1/2) when incubated with liver microsomes” value is reported as “(5) h” and the “% degradation … with liver microsomes” value came to 32%.

On to `CCc1cc(OC)ccc1-c1ccc(CC(CNC(CCCc2ccccc2F)C(N)=O)NC(=O)[C@H](CC(=O)O)NC(=O)[C@H](CO)NC(=O)[C@@H](NC(=O)C(C)(Cc2ccccc2F)NC(=O)[C@@H](NC(=O)CNC(=O)[C@H](CC(C(F)(F)F)C(F)(F)F)NC(=O)C(C)(C)NC(=O)[C@@H](N)Cc2c[nH]cn2)[C@H](C)O)[C@H](C)O)cc1` (some centres unmarked) [compound 214] (H-H[Aib][Leu(5,5,5,5',5',5'-F6)]G[aThr][ξαMePhe(2-F)][aThr]SD-X4), for which, in series [1], the “% degradation … with DPP-IV enzyme” value turned out to be 76%. In series [2], the “half-life … with human plasma” value is “(9) h” and the “% degradation … with human plasma” value worked out at 78%. For the same compound, in series [3], the “% degradation … with simulated gastric fluid” value is on record as 100% and the half-life at 2 μM is 0.5 h. For the same compound, in series [4], the “% degradation … with simulated intestinal fluid” value is reported as 100% and the half-life at 2 μM was 0.5 h. For the same compound, in series [5], the “% degradation … with liver microsomes” value amounted to 100% and the half-life at 2 μM turned out to be 0.5 h.

On to `CCc1cc(OC)ccc1-c1ccc(CC(NC(=O)[C@H](CC(=O)O)NC(=O)[C@H](CO)NC(=O)[C@@H](NC(=O)[C@H](Cc2ccccc2)NC(=O)[C@@H](NC(=O)CNC(=O)[C@H](CCC(N)=O)NC(=O)[C@H](CO)NC(=O)[C@@H](N)Cc2c[nH]cn2)[C@@H](C)O)[C@@H](C)O)C(=O)NC(CCCc2cccc(Cl)c2)C(N)=O)cc1` (some centres unmarked) [compound 7] (H-HSQGTFTSD[ξBip(2'-Et-4'-OMe)][ξNva(5-(3-Cl-Ph))]-NH2), for which, in series [1], the “% degradation … with DPP-IV enzyme” value is on record as 71% and the half-life at 2 μM was 8 h. For the same compound, in series [2], the “% degradation … with human plasma” value was 69% and the half-life at 2 μM came to 8 h. Also, in series [3], the “% degradation … with simulated gastric fluid” value is listed as 11% and the half-life at 2 μM is 7 h. Moreover, in series [4], the “half-life … with simulated intestinal fluid” value is reported as “(6) h” and the “% degradation … with simulated intestinal fluid” value is listed as 43%. Besides, in series [5], the “% degradation … with liver microsomes” value was found to be 77% and the half-life at 2 μM worked out at 2 h.

The record behind these values is patent US8883963B2 (Cadila Healthcare Limited, priority 2007, dated 2014).
